In patent US20230255975A1, “METHODS FOR TREATING CANCER WITH COMBINATION THERAPIES” (Celgene Corporation, priority 2020, published 2023):
pIC50: −log10 of the molar value. Where two headings read alike, the source gives them in different places.

How the values were obtained:
[1] = test system: other kinases, including Cdk1 and Aurora B; details: selective inhibitors of NEK2; Henise 2011, Innocenti 2012; cited from earlier work
[2] = test system: H929 cell line; assay: Proliferation assay; format: cell-based; details: Homo sapiens
Description: (§1) Proliferation and viability assays: Cell growth curves were determined by monitoring the viability of cells with Trypan blue exclusion on a Vi-Cell-XR (Becton Dickinson, Franklin Lakes, N.J., USA). Proliferation assays were performed in triplicate at least three times (n=3) using (3H)-thymidine incorporation. All data were plotted and analyzed using GraphPad Prism 7 (GraphPad Software, La Jolla, Calif., USA) software, represented as the mean with an error determined as ±s.d.
(§2) Proliferation and viability assay. Cell growth curves were determined by monitoring the viability of cells with Trypan blue exclusion on a Vi-Cell-XR (Becton Dickinson, Franklin Lakes, N.J., USA). Cell lines were plated in triplicate in 96-well round-bottom plates with the indicated drug concentrations or knockdown cells. Proliferation assays were performed in triplicate at least three times (n=3) using either the WST-1 tetrazolium salt (Roche Applied Science) reagent used according to the manufacturer's specifications or by (3H)-thymidine incorporation as previously described (Bjorklund et al., Blood Cancer Journal 5, e354, 2015). All data were plotted and analyzed using GraphPad Prism 7 (GraphPad Software, La Jolla, Calif., USA) software, represented as the mean with an error determined as ±s.d.

[3] = test system: H929-PR cell line; assay: Proliferation assay; format: cell-based; details: isogenic sensitive/resistant comparison, read-out: IC50 concentration, proliferation
Description: as §2

[4] = test system: AMO1 cell line; assay: Proliferation assay; format: cell-based; details: AMO1; for pIC50: Homo sapiens, read-out: IC50 concentration, proliferation
Description: as §1
as §1, with “assay.” for “assays:”, “Cell lines” for “Proliferation assays”, “plated” for “performed”, “in 96-well round-bottom plates with the indicated drug concentrations or knockdown cells. […]” for “at least three times (n=3) using (3H)-thymidine incorporation.”

[5] = test system: K12PE-PR cell line; assay: Proliferation assay; format: cell-based
Description: as §1
as §1, with “assay.” for “assays:”, “Cell lines” for “Proliferation assays”, “plated” for “performed”, “in 96-well round-bottom plates with the indicated drug concentrations or knockdown cells. […]” for “at least three times (n=3) using (3H)-thymidine incorporation.”

[6] = test system: AMO1-PR (pomalidomide resistant) cell line; assay: Proliferation assay; format: cell-based
Description: as §1
as §1, with “assay.” for “assays:”, “Cell lines” for “Proliferation assays”, “plated” for “performed”, “in 96-well round-bottom plates with the indicated drug concentrations or knockdown cells. […]” for “at least three times (n=3) using (3H)-thymidine incorporation.”

[7] = test system: K12PE cell line; assay: Proliferation assay; format: cell-based; details: for pIC50: K12PE, read-out: IC50 concentration, proliferation
Description: as §1
as §1, with “assay.” for “assays:”, “Cell lines” for “Proliferation assays”, “plated” for “performed”, “in 96-well round-bottom plates with the indicated drug concentrations or knockdown cells. […]” for “at least three times (n=3) using (3H)-thymidine incorporation.”

[8] = test system: NEK2 shRNA cell lines; assay: Biparametric Annexin V and Propidium Iodide assay; format: cell-based
Description: (§3) Biparametric assay for detection of cell cycle and apoptosis. Cell viability assay with Annexin V-FITC and propidium iodide was performed according to the published protocol cycle (Rieger et al., J Vis Exp. 2011, (50):2597; Léonce et al., Mol Pharmacol. 2001, 60(6):1383-1391).
(§4) Pomalidomide treatment combined with NEK2 inhibition increases apoptosis. Biparametric Annexin V and Propidium Iodide (PI) assay was performed to analyze cell cycle and apoptosis in the same sample and to quantify the proportion of cells undergoing apoptosis at each phase of cell cycle (Rieger et al., J Vis Exp. 2011, (50):2597; Léonce et al., Mol Pharmacol. 2001, 60(6):1383-1391). Control shRNA and NEK2 shRNA cell lines were treated with pomalidomide and followed cell cycle and apoptosis for the duration of two cell cycles. At 72 hours about 5.04% cells in the control shRNA lines were apoptotic compared to 21.1% apoptotic cells in NEK2 shRNA cell lines. […] At 96 hours about 9.5% of the cells in control shRNA lines and 24.7% of the NEK2 shRNA cell lines were apoptotic, and a majority of apoptotic cells were again contributed from G1-S phase of cell cycle. […] Combination of these two agents results in apoptosis of 20-25% cells in each cycle, with majority of apoptotic cells contributed from G1/S phase of cell cycle.

[9] = test system: Control shRNA cell lines; assay: Biparametric Annexin V and Propidium Iodide assay; format: cell-based
Description: as §3, §4

[10] = test system: PLK1 transcript in MM1.S cells; assay: PLK1 transcript levels (qPCR); format: cell-based; details: FIG. 2D
Description: RNA Extraction, Reverse Transcription, and Real-Time PCR Analysis: Total RNA was extracted using a RNeasy plus kit (Qiagen, Germantown, Md., USA) and reverse-transcribed using an iScrip reverse transcription kit (Bio-Rad, Philadelphia, Pa., USA). Quantitative real-time PCR (qPCR) analyses were performed using Taqman PCR Master Mix and the ViiA 7 Real-Time PCR System (Applied Biosystems, Foster City, Calif., USA). Gene expressions were calculated following normalization to GAPDH levels using the comparative CT method (ΔΔCT method). The primer sequences for qPCR are following:
The effects of pomalidomide in isogenic sensitive (EJM) and resistant (EJM-PR) and MM1.S cell lines was analyzed. […] To determine the role of PLK1 in pomalidomide response, EJM and EJM-PR cell lines were treated with pomalidomide and analyzed changes in PLK1 levels and downstream signaling. […] The changes in PLK1 transcript levels were further examined in response to pomalidomide treatment in MM1. […] Since changes in PLK1 levels are due to decrease in PLK1 transcription in response to antiproliferative compounds, the effects of Aiolos and Ikaros knockdowns on PLK1 levels using MM1.S cells with inducible expression of Aiolos and Ikaros shRNAs were analyzed. […]

[11] = test system: PLK1, pCDC25C and CDC25C in EJM cells; assay: Immunoblot of PLK1 signaling; format: cell-based; details: EJM (sensitive) cells only, not EJM-PR
Description: (§5) Immunoblotting: Immunoblot analysis was performed using WES kits, (Protein Simple, San Jose, Calif., USA) at least two times each (n≥2), where the best representative is shown.
(§6) The effects of pomalidomide in isogenic sensitive (EJM) and resistant (EJM-PR) and MM1.S cell lines was analyzed. […] To determine the role of PLK1 in pomalidomide response, EJM and EJM-PR cell lines were treated with pomalidomide and analyzed changes in PLK1 levels and downstream signaling. […] The changes in PLK1 transcript levels were further examined in response to pomalidomide treatment in MM1. […] Confocal microscopy was performed to study changes in PLK1 and CDC25C staining in MM1.S cells and a decrease in PLK1 levels and simultaneous decrease in CDC25C staining in response to pomalidomide and Compound 5 treatments was observed. […] Further analysis of the ChIP-seq datasets of Aiolos confirmed binding of Aiolos on TSS of PLK1 with overlapping transcriptional activation H3K27Ac signature extrapolated from publicly available ChIP-seq datasets in GM12878 cell line (Encode project). Since changes in PLK1 levels are due to decrease in PLK1 transcription in response to antiproliferative compounds, the effects of Aiolos and Ikaros knockdowns on PLK1 levels using MM1.S cells with inducible expression of Aiolos and Ikaros shRNAs were analyzed. Both Aiolos and Ikaros knock down lead to a decrease in PLK1 levels (FIG. 2F), indicating transcriptional regulation of PLK1 by substrates of Cereblon.

[12] = test system: PLK1 signaling in MM1.S cells; assay: Immunoblot of PLK1 signaling; format: cell-based; details: MMS.1 cells, increasing concentrations; FIG. 2C
Description: as §5, §6

[13] = test system: CKS1B and E2F2 in EJM and EJM-PR cell lines; assay: CKS1B and E2F2 in response to Pom; format: cell-based; details: isogenic EJM and EJM-PR; FIG. 12
Description: Effects of Pomalidomide (Pom) on CKS1B and E2F2 in Pom sensitive and resistant cell lines. […] Since Aiolos was not degraded in the EJM-PR cell line consistent with the absence of CKS1B and E2F2 downregulation, the binding of Aiolos on the transcriptional start sites (TSS) of CKS1B and E2F2 was analyzed.

[14] = test system: KMS11 cell line; assay: Proliferation assay; format: cell-based; details: Homo sapiens, KMS-11, 1q amp 6-8×, BRD4/BET inhibition
Description: as §1

[15] = test system: U266 cell line; assay: Proliferation assay; format: cell-based; details: Homo sapiens, U-266, 1q amp 3×, BRD4/BET inhibition, read-out: IC50
Description: as §1

[16] = test system: DF15/PR cell line; assay: Proliferation assay; format: cell-based; details: 1q amp 3×, BRD4/BET inhibition
Description: as §1

[17] = test system: MM1.S cell line; assay: Proliferation assay; format: cell-based; details: Homo sapiens, 1q amp 3×, BRD4/BET inhibition
Description: as §1

[18] = test system: Mc-CAR cell line; assay: Proliferation assay; format: cell-based; details: McCAR; 1q amp normal; BRD4/BET inhibition; read-out: IC50
Description: as §1, §2

[19] = test system: CKS1B and E2F2 in MDMS8-like (DF15PR) cell line; assay: Immunoblot of CKS1B and E2F2 after BET inhibitors; format: cell-based; details: FIG. 10A
From the text: (§7) Effects of BRD4 inhibitors on CKS1B and E2F2 and their target genes. CKS1B and E2F2 have been enlisted as super-enhancer (SE) associated genes in MM (Loven, J., et al., Cell, 2013, 153(2): p. 320-34). In order to pharmacologically target CKS1B and E2F2, the BET inhibitors JQ1 and Compound A were utilized in MDMS8-like and H929 cell lines. […] BET inhibitors also promoted a decrease in Cereblon substrates, Ikaros, Aiolos and c-Myc levels. Further, an increase in the levels of P27 was observed, which is a negative regulator of CKS1B signaling. Immunofluorescence staining was performed to analyze the localization and expression of CKS1B and E2F2 in response to JQ1 and confirmed the decrease in their nuclear expression in MDMS8-like cells (data not shown). Since BET inhibitors mediate their changes mainly at transcript levels, transcript levels of CKS1B and E2F2 were analyzed in response to BET inhibitors. In both MDMS8-like and H929 cell lines, BET inhibitors promoted a decrease in transcript levels of CKS1B and E2F2 (FIG. 10C, FIG. 10D, FIG. 10E, and FIG. 10F). […] To ascertain the SE mediated regulation of CKS1B and E2F2, CDK7 inhibitors targeting SE-associated complexes in MM cell lines were utilized.

[20] = test system: CKS1B and E2F2 in H929 cell line; assay: Immunoblot of CKS1B and E2F2 after BET inhibitors; format: cell-based; details: FIG. 10B
From the text: as §7

[21] = 72 h, Day 3 post treatment, NEK2 inhibitor
[22] = isogenic sensitive/resistant comparison

Question: Which results are given for CC(/C=C\C(F)(F)F)Oc1cc(-c2cc(-c3cc(CN(C)C)cs3)cnc2N)ccc1C(N)=O (racemic) [Rac-CCT 250863, 4-[2-amino-5-[4-[(dimethylamino)methyl]-2-thienyl]-3-pyridinyl]-2-[[(2Z)-4,4,4-trifluoro-1-methyl-2-buten-1-yl]oxy]benzamide]?
Answer: Selectivity: effect on other kinases, including Cdk1 and Aurora B [1]: low effect on other kinases; pIC50 ([2]; NCI-H929, 72 h, Day 3 post treatment, NEK2 inhibitor, read-out: IC50 concentration, proliferation): 5.10; pIC50 ([2]; NCI-H929, isogenic sensitive/resistant comparison, read-out: IC50 concentration, proliferation): 5.10; pIC50 [3]: 5.28; pIC50 [4, 21]: 5.15; pIC50 [4, 22]: 5.15; pIC50 ([5]; K12PE-PR, isogenic sensitive/resistant comparison, read-out: IC50 concentration, proliferation): 5.29; pIC50 ([6]; isogenic sensitive/resistant comparison, read-out: IC50 concentration, proliferation): 5.44; pIC50 [7, 21]: 5.06; pIC50 [7, 22]: 5.07

Question: With Nc1cccc2c1C(=O)N(C1CCC(=O)NC1=O)C2=O (stereo not drawn) [Compound 1, 4-amino-2-(2,6-dioxopiperidine-3-yl)isoindoline-1,3-dione] as the compound, how does the apoptotic cells ([8]; 72 hours) read?
Answer: 21.1%

Question: And the apoptotic cells ([8]; 96 hours)?
Answer: 24.7%

Question: And the apoptotic cells ([9]; 72 hours)?
Answer: about 5.04%

Question: And the apoptotic cells ([9]; 96 hours)?
Answer: about 9.5%

Question: What about the PLK1 transcript levels [10] of the same compound?
Answer: decreased PLK1 transcript levels in a dose dependent manner

Question: And the “PLK1 levels and downstream effector pCDC25C and CDC25C” value [11]?
Answer: dose dependent decrease

Question: And the PLK1 signaling [12]?
Answer: dose dependent decrease

Question: What about the “CKS1B and E2F2 expression” value [13] of the same compound?
Answer: downregulated at the transcriptional level only in Pom sensitive cells

Question: And the “Synergy with trametinib on proliferation” value ([4]; in combination with trametinib)?
Answer: strong synergy

Question: What about the “Synergy of combination with JQ1 on proliferation” value ([5]; Pom resistant K12PE-PR, in combination with JQ1) of the same compound?
Answer: synergistically decreased proliferation

Question: And the “Synergy with trametinib on proliferation” value ([6]; in combination with trametinib)?
Answer: strong synergy

Question: What about the “Synergy analysis (Calcusyn) of combination with JQ1 on proliferation” value ([7]; K12PE cells, in combination with JQ1) of the same compound?
Answer: synergistic

Question: With Cn1cc(-c2cc(S(C)(=O)=O)ccc2OCC2CC2)c2ccccc2c1=O [Compound A, 4-[2-(cyclopropylmethoxy)-5-(methanesulfonyl)phenyl]-2-methylisoquinolin-1(2H)-one] as the compound, how does the pIC50 [14] read?
Answer: 7.39

Question: What about the pIC50 [15] of the same compound?
Answer: 7.47

Question: And the pIC50 [16]?
Answer: 7.45

Question: And the pIC50 [17]?
Answer: 7.55

Question: And the pIC50 ([2]; NCI-H929, 1q amp 3-4×, BRD4/BET inhibition, read-out: IC50)?
Answer: 7.27

Question: What about the pIC50 [18] of the same compound?
Answer: 7.03

Question: What about the “protein levels of CKS1B and E2F2” value [19] of the same compound?
Answer: dose and time dependent decrease

Question: What about the “protein levels of CKS1B and E2F2” value [20] of the same compound?
Answer: dose and time dependent decrease
